Measured values reported in US4138485A, “Phenylalanine derivatives” (Kyowa Hakko Kogyo Kabushiki Kaisha, priority 1976, dated 1979).
Where two headings read alike, the source gives them in different places.

Key:
Acute toxicity in mice = conditions: mouse, in vivo
Protocol: (§1) (1) Acute toxicity and tonic convulsion in hind paw:
(§2) The acute toxicity and tonic convulsion occured by stimulus by hand touch were determined in the following manner to give the results shown in Table 2.
(a) Acute toxicity in mice:
38 Groups, each consisting of 5 mice (male dd-strain, weight -- 18 to 24 g), were used for the test and control groups. The compounds shown in Table 2 were administered orally or intraperitoneally to the mice. After one week, the survival ratio was measured.

Acute toxicity in rats = conditions: rat, in vivo
Protocol: as §1, §2
(b) Acute toxicity in rats:
28 Groups, each consisting of 5 rats (male Wistar strain, weight -- 200 g), were used for the test and control groups. The compounds shown in Table 2 were orally administered to the rats. After one week, the survival ratio was measured.

[1] = tested on: hyperlipemia induced by Triton; assay: Cholesterol-lowering activity on hyperlipemia induced by Triton in mice; format: in vivo, mice (male dd-strain); conditions: Mus musculus, read-out: Ratio of the reduction of cholesterol
Protocol: (2) Cholesterol-Lowering activity on hyperlipemia induced by Triton in mice:
38 Groups, each consisting of 9 mice (male dd-strain, weight -- 19 to 21 g), were used for the test and control groups. […] Immediately after the administration and also after 20 hours from the administration of Triton, the mice were orally administered with 100 mg/kg of the compound shown in Table 3. 43 hours after the administration of Triton, the blood samples were collected by decapitation and then the corpuscle was removed by centrifugation. Cholesterol in the serum was determined by Zurkowski's method modified by Shibata (color of the test solution was developed by using sulfoalicyclic acid, acetic acid and sulfuric acid and the optical density of the solution was determined at 620 mμ.

Cholesterol in the serum = assay: Cholesterol-lowering activity on normal rats of Wistar strain (serum cholesterol, liver weight); format: in vivo, rats (male Wistar strain); conditions: 0.3% in diet; for B - Ratio of decrease of liver weight: continuous administration for 4 days; for C - Ratio of decrease of cholesterol / D - Ratio of increase of liver weight: continuous administration for 14 days
Protocol: (3) Cholesteral-lowering activity on normal rats of Wistar strain:
(i) 22 Groups, each consisting of 5 rats (male Wistar strain, weight -- 150 to 180 g) were used for the test and control groups. After this, the blood samples were collected by decapitation and then the corpuscle was removed by centrifugation. Cholesterol in the serum was determined by Zurkowski's method modified by Shibata and also the liver was excised and weighed. The results are shown in Table 4 wherein the ratio of 100% denotes the amount of chloresterol and the weight of the liver of normal rats fed with powdery diet without the addition of the compound.

[2] = tested on: Triglyceride, phospholipid and free fatty acid in the serum; assay: Determination of triglyceride, phospholipid and free fatty acid in the serum of normal rats; format: in vivo, rats (Wistar strain); conditions: for A - Ratio of decrease of triglyceride / B - Ratio of decrease of phospholipid / C - Ratio of decrease of free fatty acid: continuous administration for 4 days; for lowering activity on lipids other than cholesterol (in words): normal rats, 4 days
Protocol: (ii) Determination of triglyceride, phospholipid and free fatty acid in the serum of normal rats of Wistar strain: Clofibrate and Compounds 1 and 2 were tested in a similar manner to that described in (i). Triglyceride, phospholipid and free fatty acid in the serum were determined in the following manner to give the results shown in Table 5. (a) Determination of triglyceride: Triglyceride was determined by acetylacetone method [Kazuo Matsumiya et al "Rinsho Byori", Vol. 18, page 383 (1970), Japan] in the following manner. Isopropyl alcohol was added to the test solution of the serum to extract triglyceride which was then saponified with potassium hydroxide to give glycerol. The glycerol was oxidized by using sodium salt of methaperiodic acid to convert it into formaldehyde. Color of the test solution was developed by acetylacetone and the optical density at 420 mμ was determined. (b) Determination of phospholipid: "Phospholipid Test Wako", a reagent available from Wako Junyaku K.K., Japan, was used for the determination of phospholipid in the following manner according to a similar manner to that described in "Rinsho Byori", Vol. 17, page 389 (1969), Japan, by Atsuo […] et al. Trichloroacetic acid was added to the serum to give precipitates of lipoprotein which were then added with sulfuric acid and potassium permanganate to form phosphoric acid. Color of the test solution was developed by ammonium molybdate and the optical density was determined at 660 mμ. (c) Determination of free fatty acid: Laurell's method [CLin. Chim. Acta. 16, 57 (1967)] was used for determination in the following manner. […] After shaking for 5 minutes, the solution was centrifuged. 5 Ml of the supernatant was put into another tube and was added with 2 ml of copper reagent. […] The optical density at 550 mμ was determined.

[3] = tested on: hyperlipemia induced by Triton; assay: Effect on hyperlipemia induced by Triton in rats: activity in the increasing phase; format: in vivo, rats (male Wistar strain); conditions: for activity in the developing phase (in words): Clofibrate, Compounds 1 and 2 compared with each other; for Cholesterol / Cholesterol, Ratio of decrease / Triglyceride / Triglyceride, Ratio of decrease: serum, increasing phase, 200 mg/kg oral, 20 hours
Protocol: (§3) (4) Effect on hyperlipemia induced by Triton in rats:
(i) Activity in the increasing phase:
(§4) 3 Groups, each consisting of 9 rats (male Wistar strain, weight -- 200 to 240 g) fasted for 24 hours were used for this test. Each rat was administered intravenously with 200 mg/kg of Triton (WR-1339), followed by oral administration of 200 mg/kg of the compounds shown in Table 6. After 20 hours from the administration, the blood samples were collected by decapitation. Cholesterol and triglyceride in the serum were determined in a similar manner to that used in (2, ii) to give the results shown in Table 6.

[4] = tested on: hyperlipemia induced by Triton; assay: Effect on hyperlipemia induced by Triton in rats: activity in the decreasing phase; format: in vivo, rats (male Wistar strain); conditions: for Cholesterol / Cholesterol, Ratio of decrease / Triglyceride / Triglyceride, Ratio of decrease: serum, decreasing phase, 200 mg/kg oral 25 hours after Triton, sampled at 30 hours; for activity in the decreasing phase (in words): compared with Clofibrate
Protocol: as §3, §4
(II) Activity in the decreasing phase:
Hyperlipemia occurred by administering Triton (WR-1339) in a similar manner to that in (i). After 25 hours, 200 mg/kg of the compounds were orally administered to the rats. After 30 hours from the injection of Triton, the blood samples were collected by decapitation.

[5] = tested on: glycerol induced hyperlipemia; assay: Lipid lowering effects on glycerol induced hyperlipemia in rats; format: in vivo, rats (male Wistar strain); conditions: 0.25% in diet; for Cholesterol / Cholesterol, Ratio of decrease / Triglyceride / Triglyceride, Ratio of decrease: serum, 15% glycerol in water
Protocol: (5) Lipid lowering effects on glycerol induced hyperlipemia in rats: The test was carried out in a similar method to that by […] et al [Life Science, 3, 1021 (1964)] . A group consisting of 10 rats (male Wistar strain, weight - 190 to 210 g) was used for each of the test and control groups. Hyperlipemia occurred by feeding the rats ad libitum with water containing 15% (by volume) of glycerol. […] After this, the blood samples were collected by decapitation and the serum was separated by centrifugation.

[6] = tested on: cholesterol and triglyceride in the serum; assay: Lipid lowering activity in cynomolgus monkeys; format: in vivo, cynomolgus monkeys (male, born in Malaysia); conditions: 100 mg/kg/day oral, 10 days; for Decrease Ratio of Cholesterol / Decrease Ratio of Triglyceride: average of 3 times cross-over
Protocol: (6) Lipid lowering activity in cynomolgus monkeys:
6 cynomolgus monkeys (male, born in Malaysia, weight -- 2.5 to 3.9 kg) were used for this test. All monkies were breeded in individual cages at a temperature from 23° to 25° C. and fed with a solid diet for monkey (available from Oriental Yeast K.K., Japan) and sweet potatoes every morning and with apples and bananas from time to time. The monkeys were divided into 3 groups, each consisting of 2 monkeys, to orally and compulsively administer the test compound in an amount of 100 mg/kg/day once in every morning for 10 days. At 11 days after the first administration, before feeding the diet in early morning blood samples were collected from the saphenae of the monkeys to determine cholesterol and triglyceride in a similar manner to that described above. The ratio of lowering cholesterol (RCL) or triglyceride (RLT) was calculated by the following formula. [formula] wherein A is the average amount of the cholesterol or triglyceride in the serum before administration, and B is the corresponding amont after administration for 10 days.
After an interval of 5 weeks, another compound was administered to determine cholesterol or triglyceride in a similar manner to that described above. After a further interval of 5 weeks, a similar procedure was repeated by using another compound to determine cholesterol or triglyceride.

[7] = ip, intraperitoneal administration, after one week, read-out: Acute Toxicity (LD50), B
[8] = oral administration, after one week, read-out: Acute Toxicity (LD50), A
[9] = oral administration, after one week, read-out: Acute Toxicity (LD50), C

Row | SMILES | B - Ratio of decrease of liver weight (Cholesterol in the serum) | C - Ratio of decrease of cholesterol (Cholesterol in the serum) | D - Ratio of increase of liver weight (Cholesterol in the serum) | A - Ratio of decrease of triglyceride [2] | B - Ratio of decrease of phospholipid [2] | C - Ratio of decrease of free fatty acid [2] | activity in the developing phase (in words) [3] | Cholesterol [3] | Cholesterol, Ratio of decrease [3] | Triglyceride [3] | Triglyceride, Ratio of decrease [3] | Cholesterol [4] | Cholesterol, Ratio of decrease [4] | Triglyceride [4] | Triglyceride, Ratio of decrease [4] | activity on lowering triglyceride and cholesterol (in words) [5] | Cholesterol [5] | LD50 at 168 h (Acute toxicity in mice; [8]) | LD50 at 168 h (Acute toxicity in rats; [9]) | inhibition in vivo at 100 mg/kg ([1]; po, 43 h) | also measured
1 | CCOC(=O)C(C)(C)Oc1ccc(Cl)cc1 [Clofibrate, reference compound] | 40.1% | 32.3% | 60.1% | 50.1% | 25.0% | 26.7% | substantially equal | 203 mg/dL | 20.8% | 856 mg/dL | 36.0% | 138 mg/dL | 7.5% | 401 mg/dL | -15.6% | have an activity on lowering triglyceride and cholesterol | 39.1 mg/dL | – | – | – | LD50 at 168 h (Acute toxicity in mice; ip): 1620 mg/kg; LD50 at 168 h (Acute toxicity in mice; po): 2100 mg/kg; LD50 at 168 h (Acute toxicity in rats; po): > 200 mg/kg; inhibition in vivo at 100 mg/kg ([1]; 100 mg/kg oral, twice (0 and 20 hours after Triton 600 mg/kg i.v.), serum at 43 hours): 40%; Cholesterol, Ratio of decrease [5]: 30.6%; Triglyceride [5]: 129 mg/dL; Triglyceride, Ratio of decrease [5]: 74.0%; cholesterol-lowering activity (in words) [6]: have a cholesterol-lowering activity; Decrease Ratio of Cholesterol [6]: 6.7%; Decrease Ratio of Triglyceride [6]: 9.0%
2 | Cc1ccc(CSC(=O)N[C@@H](Cc2ccccc2)C(=O)O)cc1 [Compound 1, N-(4-methylbenzylthiocarbonyl)-L-phenylalanine] | 14.8% | 26.1% | 33.1% | 42.0% | 13.8% | 27.0% | substantially equal | 198 mg/dL | 22.7% | 940 mg/dL | 29.7% | 103 mg/dL | 30.7% | 141 mg/dL | 59.4% | have an activity on lowering triglyceride and cholesterol | 44.5 mg/dL | > 4000 mg/kg | > 200 mg/kg | 55% | LD50 at 168 h (Acute toxicity in mice; [7]): > 100 mg/kg; lowering activity on lipids other than cholesterol (in words) [2]: have a lowering activity on lipids other than cholesterol; activity in the decreasing phase (in words) [4]: superior to that of Clofibrate; Cholesterol, Ratio of decrease [5]: 21.0%; Triglyceride [5]: 148 mg/dL; Triglyceride, Ratio of decrease [5]: 70.0%; cholesterol-lowering activity (in words) [6]: have a cholesterol-lowering activity; Decrease Ratio of Cholesterol [6]: 12.2%; Decrease Ratio of Triglyceride [6]: 10.8%
3 | COC(=O)[C@H](Cc1ccccc1)NC(=O)SCc1ccc(C)cc1 [Compound 2, N-(4-methylbenzylthiocarbonyl)-L-phenylalanine methylester] | 8.2% | 17.5% | 3.9% | 2.1% | 10.9% | 21.8% | substantially equal | 202 mg/dL | 21.3% | 729 mg/dL | 45.5% | 116 mg/dL | 22.2% | 205 mg/dL | 40.9% | have an activity on lowering triglyceride and cholesterol | 47.5 mg/dL | > 4000 mg/kg | > 900 mg/kg | 38% | LD50 at 168 h (Acute toxicity in mice; [7]): > 100 mg/kg; lowering activity on lipids other than cholesterol (in words) [2]: have a lowering activity on lipids other than cholesterol; activity in the decreasing phase (in words) [4]: superior to that of Clofibrate; Cholesterol, Ratio of decrease [5]: 15.7%; Triglyceride [5]: 261 mg/dL; Triglyceride, Ratio of decrease [5]: 41.3%; cholesterol-lowering activity (in words) [6]: have a cholesterol-lowering activity; Decrease Ratio of Cholesterol [6]: 9.7%; Decrease Ratio of Triglyceride [6]: -7.3%
4 | COC(=O)[C@H](Cc1ccccc1)NC(=O)SCc1c(C)c(C)c(C)c(C)c1C [Compound 30, N-(2,3,4,5,6-pentamethylbenzylthiocarbonyl)-L-phenylalanine methylester] | 11.0% | – | – | – | – | – | – | – | – | – | – | – | – | – | – | – | – | > 1000 mg/kg | > 100 mg/kg | 68% | –
5 | O=C(N[C@@H](Cc1ccccc1)C(=O)O)SCc1cccc2ccccc12 [Compound 31, N-(α-naphthylmethylthiocarbonyl)-L-phenylalanine] | 24.4% | – | – | – | – | – | – | – | – | – | – | – | – | – | – | – | – | > 1000 mg/kg | > 100 mg/kg | 74% | –
6 | COC(=O)[C@H](Cc1ccccc1)NC(=O)SCc1cccc2ccccc12 [Compound 32] | 12.4% | – | – | – | – | – | – | – | – | – | – | – | – | – | – | – | – | > 1000 mg/kg | > 100 mg/kg | 56% | –
